“Also recorded” adds a separate entry of the source. Ends that are not written are not given here. Peptide text beside a SMILES is read from it. * marks the point of attachment. PEG = not defined here; 125I = [125I]*
Tests used:
tissue plaques = assay: Effect of metal ions, chelating agent and detergents on deposition of labelled peptide on tissue plaques; type: binding, human
Text: A deposition-enhancing agent may be added prior to the addition of the deposition-affecting agent to be tested.

AD plaques [1] = assay: Deposition of ^125 I-labelled β-amyloid peptides onto plaques in AD brain tissue (homogenate binding, autoradiography); set-up: species or system human; conditions: for deposition activity of fragment (active / not active): labelled fragment combined with AD amyloid plaque or silk, relative to βA(1-40)-OH; for plaque competence as a function of pH: growth of tissue plaques by deposition of labelled peptides from solution; for activity relative to the full length peptide βA(1-40)-OH: plaque deposition on AD brain sections, two hours, densitometry of autoradiograms
Procedure: Fragments labelled in accordance with the method described herein can be combined with amyloid plaque derived from Alzheimer's disease tissue or other amyloid substance such as silk, and tested for activity, for example, their ability to deposit on these materials.
(§1) Brain tissue was obtained form normal and Alzheimer's disease patients at 0.5 to 14 hours postmortem, frozen on dry ice after collection, and stored at -20° C. until use. For filter binding studies, tissue homogenates were prepared after the method of H. P. Too and M. R. Hanley, Biochem. J. 252:545 (1988), the disclosure of which is incorporated by reference herein. Tissue was homogenized (Polytron, setting 7-8, 5-10 sec) in 5-10 volumes of 50 mM Tricine (pH 7.5) containing 10% sucrose and protease inhibitors (0.01% bacitracin, 0.002% soybean trypsin inhibitor, 0.0002% chicken egg trypsin inhibitor, 1 mM benzamidine hydrochloride) and pelleted at 10,000 g for 20 minutes. The homogenate was then resuspended and washed several times in Tricine buffer containing 120 mM NaCl, 10 mM EDTA, 300 mM KCl and centrifuged at 40,000 g for 20 minutes and stored at -20° C. for less than two months. Membranes (equivalent to about 30 mg tissue) were resuspended in 0.5 ml 50 mM TrisHCl (pH 7.5) containing 1 mg/ml bovine serum albumin (BSA), 10 mM MnCl2, 0.004% bacitracin, 0.002% chymostatin, 0.004% leupeptin, 0.1% dimethylsulfoxide for 30 minutes prior to addition of the radioligand (10^-11 to 10^-9 M) and various concentrations of unlabelled peptides in the same buffer.
(§2) After incubating for two hours at room temperature, the homogenates (final volume 0.575 ml) were filtered through glass fiber filters (Whatman GF/D), presoaked for at least two hours in 1 mg/ml BSA and rinsed with 25 mM Tricine (pH 7.5). After washing twice with 25 mM TrisHCl (pH 7.5) at room temperature, the filters were counted in a gamma counter.
For tissue autoradiography, unfixed tissue was serially sectioned at 5-15 μm and thaw-mounted onto gelatin-coated slices. Slide-mounted sections were stored at -20° C. in closed boxes over desiccant for less than three months before use. Sections were preincubated for 30 minutes and incubated with the radioligand for two hours under the same conditions according to the aforedescribed homogenate binding study. Alternatively, 50 mM TrisHCl rather than Tricine may be used as the buffer. For estimating nonspecific binding, paired serial sections were incubated with the radioligand in the presence of a 10^4 to 10^5 fold excess of the unlabelled peptide. Following incubation with the radioligand, the slides were washed with 50 mM TrisHCl pH 7.5 (four times, two minutes each at 4° C.), then dried at 4° C. and stored in closed boxes over desiccant at room temperature overnight. The fully dried slides were then placed in apposition to tritium-sensitive film alongside iodinated standards. After one week's exposure at -20° C., the film was developed, fixed and washed. […] This approach generated film autoradiograms for quantitative densitometry,a high resolution emulsion autoradiograms for detailed histology, and a counterstained section for identification of cell types from each tissue section.
Briefly peptides were purchased or synthesized by fluorenemethoxycarbonyl chemistry on polystyrene resins, using acid-labile blocking groups for sidechain protection, cleaved with trifluoroacetic acid, and purified by RP-HPLC. […] Autoradiograms were quantitated by densitometry. […] To study the peptide fragments in water we developed a novel approach, measuring NMR data at 750 MHz using a prototype 10 mm ^1 H pulsed field gradient probe. Modified two-dimensional homonuclear TOCSY and NOESY experiments were measured at several pH values and structural information was derived using standard methods.

[2] = tested on: Alzheimer's disease plaques; assay: Competitive inhibition of ^125 I-β-amyloid peptide^1-40 deposition in homogenates of Alzheimer's disease temporal cortex; type: binding, human; conditions: increasing concentrations of unlabelled peptide, AD temporal cortex homogenates (and sections)
Procedure: as §1, §2

[3] = biological target: amyloid plaques in Alzheimer's disease brain tissue (homogenates and thin sections); assay: deposition of 125I-labelled peptide onto AD brain sections, autoradiography with densitometry
AD plaques [4] = assay: Deposition of ^125 I-labelled β-amyloid peptides onto plaques in AD brain tissue (homogenate binding, autoradiography); set-up: species or system human; conditions: for plaque deposition (plaque competence) at pH 3.9: quantitative densitometry of autoradiograms; for plaque deposition at pH 5.8: 100% = deposition of ^125 I-βA(1-40)-OH at pH 7.4
ceilan katia yarn (silk) = assay: Effect of detergents and zinc on deposition of tracer onto silk; type: binding, Bombyx silkworm; conditions: for effect of detergent on rate of deposition (binding) onto silk: detergent concentration 0 to 1%
[5] = biological target: T1, labelled β-amyloid peptide (Homo sapiens, UniProt P05067); assay: In vitro aggregation of labelled β-amyloid peptide in the absence of plaques (centrifugation, supernatant counting); type: biochemical; conditions: about 10^-9 M labelled peptide, 50 mM Tricine pH 7.5; SDS at 0.01%
T1 construct: made in house; host or cells: chemical synthesis (solid-phase Fmoc) or purchased unlabelled peptide (Bachem); radioiodinated in house
T1 sequence (P05067 672-711): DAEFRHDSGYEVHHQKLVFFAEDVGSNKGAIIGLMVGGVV
Procedure: A solution of about 10^-9 M labelled β-amyloid peptide in 50 mM Tricine buffer at pH 7.5 was prepared from stock solution of the peptide as described hereinabove in Example 1. The solution was aliquotted into several reaction vessels (polypropylene microcentrifuge tubes) and allowed to stand at room temperature with occasional vortex mixing. At various times, the tubes were centrifuged at 12000 g for 4 minutes, and the fraction of initial (t=0) cpm of labelled peptide remaining in the supernatant fraction determined by removing a small aliquot for counting. The rate of disappearance was dependent on a variety of other conditions which were evaluated using this assay. Thus, the rate of the disappearance depends on peptide concentration (faster at higher peptide concentrations), and on ionic strength (faster at higher salt concentrations). The rate of disappearance was further dependent on the presence of certain detergents such as sodium dodecylsulfate (SDS) (faster in 0.01% SDS; see, FIG. 4), and on the presence of certain organic solvents (slower in the presence of acetonitrile).

Chain of βA(1-28)-OH (peptide) (peptide): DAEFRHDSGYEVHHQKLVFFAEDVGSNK

O=C(O)CN(CCN(CC(=O)O)CC(=O)O)CC(=O)O [EDTA, ethylene diamine tetraacetic acid]
inhibition of the rate of deposition of labelled peptide (tissue plaques; 0.1 mM): five-fold

(des-A2)-βA(1-40)-OH: 39-mer lacking the alanine at position 2
deposition activity of fragment (active / not active) (AD plaques [1]): active

CC[C@H](C)[C@H](NC(=O)[C@H](C)NC(=O)CNC(=O)[C@H](CCCCN)NC(=O)[C@H](CC(N)=O)NC(=O)[C@H](CO)NC(=O)CN)C(=O)N[C@H](C(=O)NCC(=O)N[C@@H](CC(C)C)C(=O)N[C@@H](CCSC)C(N)=O)[C@@H](C)CC [βA(25-35)-NH2] (H-GSNKGAIIGLM-NH2)
inhibition of ^125 I-β-amyloid peptide^1-40 deposition onto plaques ([2]; listed as β-amyloid peptide^25-35 -NH2): competed with the 40-mer radioligand when the former was present at much higher concentrations; also recorded: substantially less potent
deposition activity of fragment (active / not active) (AD plaques [1]): not active (exhibit less than about 1% of the deposition level of βA(1-40)OH)

βA(1-40)-PEG: β-amyloid peptide 1-40 conjugated to polyethylene glycol at the C-terminus
deposition activity of fragment (active / not active) (AD plaques [1]): active

rat βA(1-40)-OH: rat and mouse analogue (G^5, F^10, R^14) of β-amyloid peptide, 1-40 (DAEFGHDSGFEVHRQKLVFFAEDVGSNKGAIIGLMVGGVV-OH)
inhibition of ^125 I-β-amyloid peptide^1-40 deposition onto plaques ([2]; listed as rat β-amyloid peptide^1-40): essentially inactive
inhibition of ^125 I-β-amyloid peptide^1-40 deposition onto plaques ([2]; listed as unlabelled rat β-amyloid peptide^1-40): did not inhibit
deposition activity of fragment (active / not active) (AD plaques [1]): not active (exhibit less than about 1% of the deposition level of βA(1-40)OH)

βA(10-35)-OH: β-amyloid fragment residues 10-35, free carboxyl terminus (YEVHHQKLVFFAEDVGSNKGAIIGLM-OH)
deposition activity of fragment (active / not active) (AD plaques [1]): active

βA(1-35)-NH2: carboxyamidated β-amyloid fragment, residues 1-35
deposition activity of fragment (active / not active) (AD plaques [1]): active

βA(1-28)-OH: 28 residue fragment corresponding to the amino terminal region
plaque competence as a function of pH (AD plaques [1]): inactive at all pH values tested
deposition activity of fragment (active / not active) (AD plaques [1]): not active (exhibit less than about 1% of the deposition level of βA(1-40)OH)
activity relative to the full length peptide βA(1-40)-OH (AD plaques [1]): less than 1%

CCCCCCCCCCCC[N+](C)(C)CCCS(=O)(=O)[O-] [Zwittergent 312]
effect of detergent on deposition of labelled peptide on tissue plaques (tissue plaques): no effect

βA(10-35)-NH2: 26 residue carboxyamidated fragment from the central region of the βA sequence (YEVHHQKLVFFAEDVGSNKGAIIGLM-NH2; also: 125I at Tyr10 as tracer (name unlabelled))
plaque competence as a function of pH (AD plaques [1]): plaque-competent within the pH range of 5 to 9
deposition activity of fragment (active / not active) (AD plaques [1]): active
activity as fraction of the activity of βA(1-40)-OH (AD plaques [1]; physiological (subnanomolar) peptide concentration): about 1/3
activity relative to the full length peptide βA(1-40)-OH (AD plaques [1]): about 35%

βA(1-28)-OH (peptide)
activity relative to βA(1-40)-OH [3]: < 1%

^125 I-βA(1-40)-OH: ^125 I-radioiodinated (monoiodinated, reduced) human β-amyloid peptide 1-40 tracer
plaque deposition (plaque competence) at pH 3.9 (AD plaques [4]): plaque-incompetent
plaque deposition at pH 5.8 (AD plaques [4]): 83%
pH optimum of deposition onto plaques in AD tissue (AD plaques [1]; 100 pM): around neutrality
deposition in tissue without preformed plaques (AD plaques [1]; tissue without preformed plaques): no deposition was detected

PEG-βA(10-35)-NH2: polyethylene glycol conjugate of βA(10-35)-NH2 ({PEG}-YEVHHQKLVFFAEDVGSNKGAIIGLM-NH2; reading uncertain)
deposition activity of fragment (active / not active) (AD plaques [1]): not active (exhibit less than about 1% of the deposition level of βA(1-40)OH)

[Cl-].[Cl-].[Zn+2] [zinc chloride]
factor of acceleration of deposition of ^125 I-βA(1-40)-OH onto silk thread (ceilan katia yarn (silk); tracer ^125 I-βA(1-40)-OH): about 5
effect on deposition of ^125 I-βA(26-42)-NH2 onto silk (ceilan katia yarn (silk); tracer ^125 I-βA(26-42)-NH2): unaffected
enhancement of the rate of deposition of labelled peptide (tissue plaques; 0.1 mM): twenty-fold
effect on deposition of ^125 I-βA(26-42)-NH2 onto AD plaques (tissue plaques; tracer ^125 I-βA(26-42)-NH2): unaffected

^125 I-βA(10-35)-NH2: ^125 I-labelled βA(10-35)-NH2, labelled at Tyr10 (Y(125I)EVHHQKLVFFAEDVGSNKGAIIGLM-NH2)
plaque deposition (plaque competence) at pH 3.9 (AD plaques [4]): plaque-incompetent
plaque deposition at pH 5.8 (AD plaques [4]): 30%

CC#N [acetonitrile]
rate of disappearance of tracer from the supernatant (aggregation) [5]: slower

CC(C)C[C@H](NC(=O)[C@H](CCCCN)NC(=O)[C@H](CCC(N)=O)NC(=O)[C@H](Cc1c[nH]cn1)NC(=O)[C@H](Cc1c[nH]cn1)NC(=O)[C@@H](NC(=O)[C@@H](N)CCC(=O)O)C(C)C)C(=O)N[C@H](C(=O)N[C@@H](Cc1ccccc1)C(=O)N[C@@H](Cc1ccccc1)C(=O)N[C@@H](C)C(=O)N[C@@H](CCC(=O)O)C(=O)N[C@@H](CC(=O)O)C(=O)N[C@H](C(=O)NCC(=O)O)C(C)C)C(C)C [βA(11-25)-OH]
deposition activity of fragment (active / not active) (AD plaques [1]): not active (exhibit less than about 1% of the deposition level of βA(1-40)OH)

CC[C@H](C)[C@H](NC(=O)[C@H](C)NC(=O)CNC(=O)[C@H](CCCCN)NC(=O)[C@H](CC(=O)O)NC(=O)[C@H](CO)NC(=O)CN)C(=O)N[C@H](C(=O)NCC(=O)N[C@@H](CC(C)C)C(=O)N[C@@H](CCSC)C(=O)O)[C@@H](C)CC [D27-βA(25-35)-OH] (H-GSDKGAIIGLM-OH)
deposition activity of fragment (active / not active) (AD plaques [1]): not active (exhibit less than about 1% of the deposition level of βA(1-40)OH)

^125 I-βA(1-28)-OH: ^125 I-labelled βA(1-28)-OH
plaque deposition (plaque competence) at pH 3.9 (AD plaques [4]): plaque-incompetent
plaque deposition at pH 5.8 (AD plaques [4]): < 1%

CCCCCCCCCCCCOS(=O)(=O)[O-].[Na+] [SDS, sodium dodecyl sulfate]
rate of disappearance of tracer from the supernatant (aggregation) [5]: faster
effect of detergent on rate of deposition (binding) onto silk (ceilan katia yarn (silk)): increase binding rate
effect of detergent on deposition of labelled peptide on tissue plaques (tissue plaques): enhance deposition

Triton X-100
effect of detergent on rate of deposition (binding) onto silk (ceilan katia yarn (silk)): no effect
effect of detergent on deposition of labelled peptide on tissue plaques (tissue plaques): no effect

YEVHHQKLVFFAEDVGSNKGAIIGLM-NH2 (not fully specified (residue 1)) [βA(10-35)-NH2]
activity relative to the full length peptide [3]: 35%
